In ChEMBL document CHEMBL3886359, “Treatment of respiratory disorders using TRPA1 antagonists” (2015) one finds IC50 data, which are given here for six molecules.

What all share (assay type): cell-based
Test [1] deals with T1, Transient receptor potential cation channel subfamily V member 3 (Homo sapiens, UniProt Q8NET8).
T1 sequence (Q8NET8 whole entry): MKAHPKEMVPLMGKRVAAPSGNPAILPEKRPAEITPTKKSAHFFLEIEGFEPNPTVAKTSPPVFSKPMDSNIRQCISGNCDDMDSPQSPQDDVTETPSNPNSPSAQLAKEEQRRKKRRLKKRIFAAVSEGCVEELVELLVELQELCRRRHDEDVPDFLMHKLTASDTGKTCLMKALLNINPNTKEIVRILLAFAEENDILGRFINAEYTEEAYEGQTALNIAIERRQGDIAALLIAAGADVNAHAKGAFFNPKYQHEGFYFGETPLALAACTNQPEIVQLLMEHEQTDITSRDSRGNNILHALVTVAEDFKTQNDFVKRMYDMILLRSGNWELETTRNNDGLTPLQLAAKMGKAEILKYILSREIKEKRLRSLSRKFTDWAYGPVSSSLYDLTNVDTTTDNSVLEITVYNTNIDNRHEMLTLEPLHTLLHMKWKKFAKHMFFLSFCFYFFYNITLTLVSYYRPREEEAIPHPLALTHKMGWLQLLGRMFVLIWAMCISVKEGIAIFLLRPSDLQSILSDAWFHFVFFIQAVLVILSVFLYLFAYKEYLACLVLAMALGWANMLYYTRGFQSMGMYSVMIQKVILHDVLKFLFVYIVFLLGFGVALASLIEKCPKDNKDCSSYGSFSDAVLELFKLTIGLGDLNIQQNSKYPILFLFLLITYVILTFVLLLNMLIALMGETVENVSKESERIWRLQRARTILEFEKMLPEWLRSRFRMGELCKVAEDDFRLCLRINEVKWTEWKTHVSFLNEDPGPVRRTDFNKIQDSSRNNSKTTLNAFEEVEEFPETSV
The test is described as follows: (§1) Radiometric Calcium Assay: The inhibition of TRPA1 receptor activation was measured as inhibition of allylisothiocyanate (AITC) induced cellular uptake of radioactive calcium. Test compounds were dissolved in DMSO to prepare 10 mM stock solution and then diluted using plain medium with 0.1% BSA and 1.8 mM CaCl2 to get desired concentration. Final concentration of DMSO in the reaction was 0.5% (v/v). Human TRPA1 expressing CHO cells were grown in F-12 DMEM medium with 10% FBS, 1% penicillin-streptomycin solution, and 400 ug/ml of G-418. Cells were seeded 24 h prior to the assay in 96 well plates so as to get 50,000 cells per well on the day of experiment. Cells were treated with test compounds for 10 min followed by addition of AITC at a final concentration of 30 micromolar and 5 uCi/ml 45Ca+2 for 3 min at 25° C. Cells were washed and lysed using buffer containing 1% Triton X-100, 0.1% deoxycholate and 0.1% SDS. Radioactivity in the lysate was measured in Packard Top count.

Test [2] concerns the target Transient receptor potential cation channel subfamily V member 4 (Homo sapiens, UniProt Q9HBA0). The description is as §1.
Test [3] deals with Transient receptor potential cation channel subfamily M member 8 (Homo sapiens, UniProt Q7Z2W7). Described as §1.
Sequence of Transient receptor potential cation channel subfamily M member 8 (Q7Z2W7 whole entry): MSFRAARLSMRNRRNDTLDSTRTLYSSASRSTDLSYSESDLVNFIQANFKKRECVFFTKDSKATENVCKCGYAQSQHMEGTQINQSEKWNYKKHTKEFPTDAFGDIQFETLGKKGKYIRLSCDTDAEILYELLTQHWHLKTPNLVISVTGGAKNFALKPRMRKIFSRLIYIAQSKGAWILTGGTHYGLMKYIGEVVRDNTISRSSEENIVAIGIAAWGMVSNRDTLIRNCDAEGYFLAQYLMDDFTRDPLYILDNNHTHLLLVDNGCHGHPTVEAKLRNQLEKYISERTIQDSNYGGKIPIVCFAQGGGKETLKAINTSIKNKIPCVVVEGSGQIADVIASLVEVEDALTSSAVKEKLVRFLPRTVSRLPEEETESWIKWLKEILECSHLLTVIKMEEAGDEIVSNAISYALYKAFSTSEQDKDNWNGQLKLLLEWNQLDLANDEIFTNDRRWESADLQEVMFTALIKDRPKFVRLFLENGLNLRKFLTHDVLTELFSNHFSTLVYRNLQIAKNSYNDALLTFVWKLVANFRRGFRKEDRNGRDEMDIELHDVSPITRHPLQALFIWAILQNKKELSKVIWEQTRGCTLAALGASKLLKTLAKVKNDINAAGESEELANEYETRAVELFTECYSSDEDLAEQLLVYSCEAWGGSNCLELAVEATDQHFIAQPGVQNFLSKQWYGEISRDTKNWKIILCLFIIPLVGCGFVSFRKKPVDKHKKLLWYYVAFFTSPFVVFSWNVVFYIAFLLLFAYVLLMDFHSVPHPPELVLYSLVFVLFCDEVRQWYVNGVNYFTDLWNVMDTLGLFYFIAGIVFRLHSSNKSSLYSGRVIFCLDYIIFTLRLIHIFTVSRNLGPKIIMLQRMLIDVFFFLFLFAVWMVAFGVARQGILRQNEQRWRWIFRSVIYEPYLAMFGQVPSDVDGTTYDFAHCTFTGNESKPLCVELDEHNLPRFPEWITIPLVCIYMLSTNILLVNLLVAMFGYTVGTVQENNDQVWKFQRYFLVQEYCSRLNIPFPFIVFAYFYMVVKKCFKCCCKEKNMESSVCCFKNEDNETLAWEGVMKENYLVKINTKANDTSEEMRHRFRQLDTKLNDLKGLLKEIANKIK
Test [4] addresses Transient receptor potential cation channel subfamily V member 1 (Homo sapiens, UniProt Q8NER1). The description is as §1.
The target in test [5] is Transient receptor potential cation channel subfamily A member 1 (Homo sapiens, UniProt O75762). The test is described as §1.
Sequence of Transient receptor potential cation channel subfamily A member 1 (O75762 whole entry): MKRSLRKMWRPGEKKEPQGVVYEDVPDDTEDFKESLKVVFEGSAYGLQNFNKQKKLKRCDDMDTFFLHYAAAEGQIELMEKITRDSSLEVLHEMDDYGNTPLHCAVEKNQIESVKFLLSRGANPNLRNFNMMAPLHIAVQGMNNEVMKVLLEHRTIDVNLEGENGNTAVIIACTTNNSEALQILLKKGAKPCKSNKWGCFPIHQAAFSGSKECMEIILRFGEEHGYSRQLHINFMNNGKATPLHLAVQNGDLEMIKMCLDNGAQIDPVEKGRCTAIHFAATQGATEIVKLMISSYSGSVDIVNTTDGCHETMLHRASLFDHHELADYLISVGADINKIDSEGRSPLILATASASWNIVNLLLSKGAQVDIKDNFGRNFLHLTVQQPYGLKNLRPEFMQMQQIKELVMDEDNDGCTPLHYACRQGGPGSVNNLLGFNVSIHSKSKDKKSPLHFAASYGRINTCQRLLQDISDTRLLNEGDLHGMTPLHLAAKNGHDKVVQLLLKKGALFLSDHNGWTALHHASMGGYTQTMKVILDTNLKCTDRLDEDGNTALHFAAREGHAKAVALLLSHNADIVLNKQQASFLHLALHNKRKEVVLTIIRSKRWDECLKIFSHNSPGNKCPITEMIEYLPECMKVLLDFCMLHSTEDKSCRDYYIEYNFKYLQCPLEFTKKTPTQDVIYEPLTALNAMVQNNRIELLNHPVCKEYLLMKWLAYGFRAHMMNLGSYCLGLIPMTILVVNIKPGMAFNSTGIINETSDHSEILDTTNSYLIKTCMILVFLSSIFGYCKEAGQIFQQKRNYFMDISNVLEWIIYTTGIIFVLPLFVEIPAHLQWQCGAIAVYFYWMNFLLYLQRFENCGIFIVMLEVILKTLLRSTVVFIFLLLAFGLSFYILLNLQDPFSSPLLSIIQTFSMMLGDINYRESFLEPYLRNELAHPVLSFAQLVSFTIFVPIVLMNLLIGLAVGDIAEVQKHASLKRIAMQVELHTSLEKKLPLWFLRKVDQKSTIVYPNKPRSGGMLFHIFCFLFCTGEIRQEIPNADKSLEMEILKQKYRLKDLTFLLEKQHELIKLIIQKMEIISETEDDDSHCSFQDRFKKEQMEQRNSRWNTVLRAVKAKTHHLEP

Sequence of Transient receptor potential cation channel subfamily V member 4 (Q9HBA0 whole entry): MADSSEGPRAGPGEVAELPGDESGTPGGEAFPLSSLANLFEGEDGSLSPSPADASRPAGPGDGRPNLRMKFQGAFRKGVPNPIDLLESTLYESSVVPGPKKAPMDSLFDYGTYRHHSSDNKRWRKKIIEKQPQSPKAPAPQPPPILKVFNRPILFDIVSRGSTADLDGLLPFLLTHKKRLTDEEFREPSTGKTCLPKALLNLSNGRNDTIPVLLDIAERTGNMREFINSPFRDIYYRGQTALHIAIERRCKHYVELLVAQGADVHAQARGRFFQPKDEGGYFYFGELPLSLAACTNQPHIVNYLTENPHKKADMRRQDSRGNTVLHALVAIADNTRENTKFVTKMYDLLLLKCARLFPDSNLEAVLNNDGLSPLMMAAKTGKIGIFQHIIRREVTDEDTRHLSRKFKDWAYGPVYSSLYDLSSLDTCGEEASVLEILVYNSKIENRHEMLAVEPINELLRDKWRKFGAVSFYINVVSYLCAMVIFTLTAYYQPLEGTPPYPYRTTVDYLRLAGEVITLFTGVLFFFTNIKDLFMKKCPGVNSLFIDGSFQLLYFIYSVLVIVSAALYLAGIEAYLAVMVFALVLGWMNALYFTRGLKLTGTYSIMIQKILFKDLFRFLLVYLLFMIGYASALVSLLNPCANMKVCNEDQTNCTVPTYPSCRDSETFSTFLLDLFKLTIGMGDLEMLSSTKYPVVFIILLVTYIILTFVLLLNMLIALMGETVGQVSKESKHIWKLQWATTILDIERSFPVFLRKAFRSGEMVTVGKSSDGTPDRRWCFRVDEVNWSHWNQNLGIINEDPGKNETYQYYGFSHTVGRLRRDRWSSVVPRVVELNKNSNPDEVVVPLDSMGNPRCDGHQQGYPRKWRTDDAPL
Sequence of Transient receptor potential cation channel subfamily V member 1 (Q8NER1 whole entry): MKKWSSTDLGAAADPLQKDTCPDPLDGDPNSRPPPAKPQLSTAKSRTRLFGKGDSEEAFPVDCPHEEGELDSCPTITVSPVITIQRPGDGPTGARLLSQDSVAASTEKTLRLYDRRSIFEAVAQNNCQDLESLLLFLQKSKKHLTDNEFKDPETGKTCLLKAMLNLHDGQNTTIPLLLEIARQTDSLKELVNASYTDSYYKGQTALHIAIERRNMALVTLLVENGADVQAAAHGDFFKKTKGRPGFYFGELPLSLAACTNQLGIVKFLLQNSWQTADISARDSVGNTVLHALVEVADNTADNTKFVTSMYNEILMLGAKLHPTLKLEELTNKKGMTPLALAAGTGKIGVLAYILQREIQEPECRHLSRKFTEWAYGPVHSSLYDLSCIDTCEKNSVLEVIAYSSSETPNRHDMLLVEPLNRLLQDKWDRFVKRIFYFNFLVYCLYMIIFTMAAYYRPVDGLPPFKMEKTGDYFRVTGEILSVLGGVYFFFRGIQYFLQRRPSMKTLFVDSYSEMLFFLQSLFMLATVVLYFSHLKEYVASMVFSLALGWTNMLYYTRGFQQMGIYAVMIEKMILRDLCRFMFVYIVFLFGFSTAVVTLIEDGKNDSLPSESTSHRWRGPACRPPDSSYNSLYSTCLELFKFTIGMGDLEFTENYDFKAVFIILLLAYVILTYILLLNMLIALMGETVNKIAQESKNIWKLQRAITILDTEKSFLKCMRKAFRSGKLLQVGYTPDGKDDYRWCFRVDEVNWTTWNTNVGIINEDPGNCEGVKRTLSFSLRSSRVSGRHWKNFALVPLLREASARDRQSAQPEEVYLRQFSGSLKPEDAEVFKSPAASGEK

As for `Cn1c(=O)c2c(CC(=O)Nc3nc(-c4ccc(F)c(C(F)(F)F)c4F)cs3)csc2n(C)c1=O`, the IC50 came out at 2.52 µM in test [1] and 3.04 µM in test [2].
As for `Cc1oc2c(c1CC(=O)Nc1nc(-c3ccc(OC(F)(F)F)c(Cl)c3)cs1)c(=O)n(C)c(=O)n2C`, the IC50 in test [3] is more than 10 µM; in test [4], more than 10 µM; in test [1], 4.45 µM; in test [2], 5.74 µM.
As to `Cn1c(=O)c2c(CC(=O)Nc3nc(-c4ccc(C(F)(F)F)c(F)c4F)cs3)nsc2n(C)c1=O`, the IC50 was more than 10 µM in test [3], 17.7 µM in test [4], 2.83 µM in test [1] and 0.132 µM in test [2].
For `Cn1nc2c(c1CC(=O)/N=c1\scc(-c3ccc(F)c(C(F)(F)F)c3F)n1COP(=O)(O)O)c(=O)n(C)c(=O)n2C`, the IC50 was 1.58 µM in test [5]; more than 10 µM in test [3]; more than 10 µM in test [4]; more than 10 µM in test [1]; more than 10 µM in test [2].
Consider `Cc1oc2c(c1CC(=O)/N=c1\scc(-c3ccc(OC(F)(F)F)c(Cl)c3)n1COP(=O)(O)O)c(=O)n(C)c(=O)n2C`, for which the concentration for half-maximal inhibition (IC50) in test [5] is 1.18 µM; in test [3], more than 10 µM; in test [4], more than 10 µM; in test [1] it was more than 10 µM; in test [2], more than 10 µM.
With `Cc1oc2c(c1CC(=O)/N=c1\scc(-c3ccc(OC(F)(F)F)c(Cl)c3)n1COC(=O)[C@@H](N)C(C)C)c(=O)n(C)c(=O)n2C`, the IC50 in test [3] was more than 10 µM; in test [4] it was more than 10 µM; in test [1], 2.81 µM; in test [2], 2.35 µM.

A word on the IC50: it is the concentration that gives 50% inhibition.
